# Measured values published in patent US10675293B2, “Nucleoside agents for the reduction of the deleterious activity of extended nucleotide repeat containing genes” (The Board of Trustees of the Leland Stanford Junior …, priority 2015, dated 2020).
# Key:
# [1] = tested on: Supt4h-YC and NGN-YN protein expression; test: Western blot of Supt4h-YC and NGN-YN protein levels in 2-PN4 cells; type: cell-based, human
# Procedure: As described (Liu et al., “Spt4 is selectively required for transcription of extended trinucleotide repeats,” Cell (2012) 148:690-701), equal amounts of protein were resolved by electrophoresis on 12% sodium dodecyl sulfate (SDS)-polyacrylamide gels, and transferred onto nitrocellulose membranes (nitrocellulose, Waterman 0.45 μM, NBA085C). After blocking with 5% low-fat milk in Tris-buffer saline containing 0.1% Tween-20, membranes were probed with primary antibodies, incubated with a horseradish peroxidase (HRP)-conjugated secondary antibody, and detected by ECL reagent (enhanced chemiluminescence, PerkinElmer).
# [2] = target: T1, Supt4h-GL1 / NGN-GL2 interaction (Homo sapiens, UniProt O00267+P63272); test: Split Gaussia luciferase complementation assay in M2-8 (HEK-293) cells; type: cell-based; details: M2-8 cells, RSL1 150 nM
# T1 construct: the amino terminal domain of Supt5h (NGN); expressed in transfected cells; host or cells: M2-8, a clone of 293-R1 (HEK 293), RSL1-induced
# Procedure: ii: M2-8 is a cloned 293-R1 cell which can inducibly express pNEBR-X1-Supt4h-G1-NGN-G2 by addition of RSL1. Two point mutations (M431 and M1101) were introduced to the GL1 and GL2 for better stability according to “A high-throughput cell-based Gaussia luciferase reporter assay for identifying modulators of fibulin-3 secretion” published on J Biomol Screen. 2013 July; 18(6):647-58. The cell line was selected by Hygromycin.
# Plasmids harboring the Gluc1 and Gluc2 were co-transfected in a 1:1 ratio into 293-R1 cells plated on tissue culture treated 24-well plates using Lipofectamine 2000 according to the manufacturer's instruction. […] Signal intensities (integrated 100 ms) were read on Tecan Infinite M200 or M1000.
# Human genes encoding the Supt4h protein or the amino terminal domain of Supt5h (NGN) were each fused with genes that encode subunits (GLuc1 or GLuc2) of Gaussia princeps luciferase to generate Supt4h-GL1 and NGN-GL2. […] The Gausssia luciferase substrate, native Coelenterazine, was added at a final concentration of 10 μg/ml to extracts of cells containing the indicated constructs and the magnitude of luminescence was determined using a luminometer (Tecan Infinite M200) that detects light emitted by luciferase. […] The luciferase activity that is detected is very specific and results only from interaction between the Supt4h and NGN. […]
smiles,measurement,setting,value
"O=c1cnn([C@@H]2O[C@H](CO)[C@@H](O)[C@H]2O)c(=O)[nH]1 [HD101, 6-Azauridine]",protein expression of Supt4h-YC and NGN-YN,[1],does not decrease the BiFC signal via a change in the protein level
same,inhibition of Supt4h/NGN interaction (luciferase activity),[2],inhibiting the interaction between Supt4h/NGN
